Values quoted from earlier work in patent US20240197632A1 (VETERINARY PHARMACY CORPORATION, priority 2022, published 2024).

SMILES: CC(C)Cc1ccc(C(C)C(=O)O)cc1 (stereo not shown) [Ibuprofen, 2-(4-Isobutylphenyl)propanoic acid]
- general solubility property in water: 0.0021 % wt/vol
